Each structure is given as a SMILES string.

The text below walks through data of patent publication US6667328B2, “Therapeutic agents for diabetes” (Fujimoto Brothers Co., Ltd., priority 2000, dated 2003).

For data set [1], the system named is mice. The data set can be described thus: Acute toxicity tests with single dosing in mice. It counts as in vivo. Particulars: 2000 mg/kg single oral dose, observed for 2 weeks. Here is the method: The compounds (the compound 1 and 10) of the present invention were singly orally administered to each mouse at a dose of 2000 mg/kg.
Data set [2] relates to fructose-induced hyperlipidemic rats. As to the kind of experiment: Hypotriglyceridemic activity in fructose-induced hyperlipidemic rats. Particulars: fructose-loaded rats, 30 mg/kg p.o. once daily for 7 days; for inhibition in vivo at 30 mg/kg: Rattus norvegicus, po, 168 h, read-out: Reduction in Serum Triglyceride (%). It counts as in vivo, Sprague Dawley rats. Here is the method:
The compounds were tested for a hypotriglyceridemic activity in fructose-induced hyperlipidemic rats in accordance with the method described in Nippon Yakurigaku Zasshi, 92 (3), 175-180 (1988). Sprague Dawley rats were grouped by the ranking method of body weight. Then, instead of drinking water, rats were given 75% fructose aqueous ad libitum for one week, thereby, resulting in the state of hypertriglyceridemia. The compounds of the present invention, suspended in 3% Arabic gum aqueous solution, and a dose of 30 mg/kg was orally administrated once daily for 7 days during the fructose-loading period. The control group of rats were given 3% Arabic gum aqueous solution only. Two hours later of the final administration, the rats were bled from the abdominal aorta to measure serum triglycerides and total cholesterol. The reduction rate (%) of each measurement compared to the control groups was calculated according to the equation indicated in EXAMPLE 4.

In data set [3] the test system is 3T3-L1 preadipocyte cells. The data set can be described thus: Differentiation-inducing actions on adipose cells (oil red-O staining, absorbance at 490 nm). It counts as cell-based. Conditions: 3T3-L1, oil red-O extract absorbance at 490 nm, ratio to control group (1.0). Here is the method: The cloned cell line 3T3-L1 of the preadipocyte cells at the 9-20th generation were used. The cell suspension at a concentration of 2×10^4 cells/ml was added 500 μl/well in a 24 well microplate. Then, the microplates were cultured at 37° C. in the atmosphere of 5% CO2 for 4 days with D-MEM containing 5% inactivated fetal calf serum (hereinafter abbreviated as “FCS D-MEM”). Next, the following procedures were conducted.
(1) To test compound of this invention, 500 μl/well of the following solutions was added to each well:
1) test compound-containing medium (T-MEM) in which the test compound in a stock solution (30 mM in DMSO) was diluted with FCS D-MEM containing 0.1 μM dexamethazone and 100 ng/ml insulin (hereinafter abbreviated as DEX-Ins-FCS D-MEM);
2) FCS-D-MEM; 3) DEX-Ins-FCS D-MEM; 4) 0.1% DMSO-containing DEX-Ins-FCS D-MEM for me control wells.
(2) After above additions were done, the culture plates were incubated at 37° C. in 5% CO2 for 3 days. Then, the same operations as in the procedure (1) were repeated for exchange of the culture medium. The culture plates were incubated at 37° C. in 5% CO2 for further 3 days.
(3) After incubation, the culture medium was removed from the culture plates. Then, the FCS D-MEM was added to the FCS D-MEM-wells, and next the medium prepared for containing 100 ng/ml of insulin with the FCS D-MEM (hereinafter abbreviated as “Ins-FCS D-MEM”) was added at 500 μl/well to the T-MEM wells and DEX-Ins-FCS D-MEM wells. All culture plates were incubated for 4 days.
(4) After incubation, the culture medium was removed. For cell fixation, 500 μl/well of 10% formalin in neutral buffer was added, and left at the room temperature for approximately 20 minutes or longer. Then the formalin solution was removed, and 60% 2-propanol solution was added at 500 μl/well, then quickly removed, and the oil red-O staining solution was added at 250 μl/well. The culture plates were sealed with plate seals, and left at room temperature for 30 minutes or longer. After incubation, the staining solution was removed, and the 60% 2-propanol solution was added at 500 μl/well, and quickly removed. The cells were rinsed with water a few times, and then water drops were flipped away. A cell-lysis buffer was added at 500 μl/well, and the culture plates were sealed with plate seals, and left at 37° C. for 1 hour to extract the pigments. Next, 300 μl/well of the extract solution was transferred at a 96 well micro-plates, and then the absorbance of each extract was measured at wavelength of 490 nm.
The absorbance ratios of the respective test compounds-groups to the control group, the mean absorbance of which was designated as 1.0, are shown in Table 8. Based on the judgement that the absorbance higher than that of the control group indicates a greater differentiation-inducing activity of the test compound, the compounds of the present invention were determined to have the activity to induce differentiation of preadipocytes to adipocytes, resulting in elevating insulin sensitivity of organs. Thereby, this activity would confer the efficacy in the therapy of diabetes.

Data set [4] has as its system db/db mice. The data set can be described thus: Antihyperlipidemic activities in genetically diabetic mice. It counts as in vivo. Particulars: 150 mg/kg p.o. once daily for 14 days, serum. As to the method: (§1) Genetically diabetic db/db mice (C57BL/ksJ Jcl-dbm db/db mice) older than 8 weeks were grouped depend on their blood sugar levels of the prior measurements in order to divide groups with almost equal mean value of the sugar level. The respective groups of db/db mice were designates as the following groups: the group given the compound of the present invention, the group of troglitazone, and the group given no administrating group. For the compounds of the present invention, two doses: 75 mg/kg and 150 mg/kg, and for troglitazone, a dose of 150 mg/kg were individually given to the mice as a forced oral administration once daily for 14 days successively. These agents were suspended in 3.0% Arabic gum solution for administration. To the control group, only the same volume of 3.0% Arabic gum solution was administered. On the next day of the final administration, each mouse was […] for sampling. The blood samples were subject to serum separation. The glucose level in the serum of each group was measured. Then, a reduction rate in a glucose level (%) compared to the control group was calculated with mean value of each group according to the equation below. […] [formula]
In the same way as described in EXAMPLE 4, db/db mice were grouped in the manner by which the respective groups had almost equivalent mean blood sugar levels. The compounds 1, 3, 13, 21 and 22 of the present invention, suspended in 3.0% Arabic gum solution, were orally administrated, with a dose of 150 mg/kg, once daily for successive 14 days. The control group of mice were given the vehicle solution only. On the next day of the final administration, each mouse was bled for sampling. The blood was subjected for serum separation, and then subjected to measurements of β-lipoproteins, free fatty acids, and triglycerides. The reduction rate (%) of each measurement compared to the control group was calculated by the equation indicated in EXAMPLE 4. […] (Table 9).

Data set [5] relates to Genetically diabetic db/db mice (C57BL/ksJ Jcl-dbm db/db mice). As to the kind of experiment: Blood sugar lowering actions in genetically diabetic mice. The class given is in vivo. Conditions: serum glucose vs control group. As to the method:
as §1

For data set [6], the system named is high cholesterol-fed hamsters. As to the kind of experiment: Lipid lowering effects in high cholesterol-fed hamsters. It counts as in vivo, Syrian hamsters. Particulars: serum, negative = elevation. The text has this: According to the method described in Jpn Pharmacol Ther, 23 (suppl 4), s1047-1053 (1995), male Syrian hamstars were fed for 3 weeks with 1% cholesterol 10% coconut oil (W/W) supplemented diet, and thereby, became to be hypercholesterolemia models. Prior to administration of the compounds, under ether anesthesia, the hamsters were bled from the orbital vein for measurement of serum total cholesterol. They were grouped in the manner by which the respective groups had almost equal serum total cholesterol levels. The normal group of hamsters were fed ordinary diet. Thereafter, the compound 1 and bezafibrate were orally administered once daily at doses of 15 (for only compound 1), 30, 60 and 120 mg/kg for 7 days. Even during the treatment period, cholesterol loading was continued. Four hours later of the final administration, the hamsters were bled by cardiac puncture. The total cholesterol and triglycerides in the serum obtained were measured by the enzymatic method. The results are shown in Table 11 (the negative values mean elevation rates.)
The actions of the compounds of the present invention at a dose of 15 mg/kg were measured in the same method as described in EXAMPLE 8.

Data set [7] deals with Salmonella typhimurium TA100 and TA98. The data set can be described thus: Mutagenesis tests (reverse mutation test). The class given is cell-based. Conditions: TA100 and TA98, direct method (−s9mix) and metabolically activated method (+s9mix). Here is the method: In order to examine mutagenecity of the compound 1, the reverse mutation test was conducted with use of Salmonella typhimurium TA100 and TA98.

[8] abbreviates: 75 mg/kg oral once daily for 14 days.
[9] abbreviates: 150 mg/kg oral once daily for 14 days.
Where [10] appears, read: 15 mg/kg oral once daily for 7 days.
Setting [11] is: 30 mg/kg oral once daily for 7 days.
The mark [12] stands for this setting: 60 mg/kg oral once daily for 7 days.
Setting [13] is: 120 mg/kg oral once daily for 7 days.

Turning to `N#CN=C1NC(=O)C(=Cc2ccc(OCCc3ccccc3)cc2)S1` [Compound 10, 2-(N-Cyanoimino)-5-(4-phenethyloxybenzylidene)thiazolidin-4-one], in data set [1], the “Survival after single oral dose” value is “all 3 mice given the respective compounds survived”. Moreover, the inhibition in vivo at 30 mg/kg in data set [2] was 39%. For the same compound, the “Absorbance Ratio” value in data set [3] is 2.12.
On to `N#CN=C1NC(=O)C(=Cc2ccc(COCc3ccccc3)cc2)S1` [Compound 3, 2-(N-Cyanoimino)-5-[4-(benzyloxymethyl)benzylidene]thiazolidin-4-one], for which the inhibition in vivo at 30 mg/kg in data set [2] was 64%. The “Absorbance Ratio” value in data set [3] amounted to 1.48. Further, in data set [4], the “Reduction Rate (%) Free Fatty Acids” value came to 58%, the “Reduction Rate (%) Triglycerides” value is listed as 85% and the “Reduction Rate (%) β-lipoproteins” value is 65%. Besides, the “Reduction in Blood Glucose (%)” value in data set [5] (setting [8]) was 24%. In data set [5] (setting [9]), the “Reduction in Blood Glucose (%)” value is 49%.
For the compound `N#CN=C1NC(=O)/C(=C\c2ccc(C=Cc3ccccc3)cc2)S1` [Compound 1, 2-(N-Cyanoimino)-5-[(E)-4-stylylbenzylidene]thiazolidin-4-one], the “Reduction Rate (%) Total cholesterol” value in data set [6] (setting [10]) came to 26%; in data set [6] (setting [11]), 25%; in data set [6] (setting [12]), 29%; in data set [6] (setting [13]), 41%. The “Reduction Rate (%) Triglyceride” value was found to be 60% in data set [6] (setting [10]), 62% in data set [6] (setting [11]), 69% in data set [6] (setting [12]) and 80% in data set [6] (setting [13]). For the same compound, the “Survival after single oral dose” value in data set [1] is on record as “all 3 mice given the respective compounds survived”. Besides, the “Reduction in Serum Triglyceride (%)” value in data set [2] worked out at 47%. Moreover, the “Absorbance Ratio” value in data set [3] stood at 1.46. For the same compound, the “Reduction Rate (%) Free Fatty Acids” value in data set [4] came to 39%. For the same compound, in data set [4], the “Reduction Rate (%) Triglycerides” value is given as 69%. In addition, the “Reduction Rate (%) β-lipoproteins” value in data set [4] came out at 51%. The “Mutagenicity (number of reversely mutated colonies)” value in data set [7] is on record as “non-mutagenic”. Moreover, the “Reduction in Blood Glucose (%)” value was 31% in data set [5] (setting [8]) and 37% in data set [5] (setting [9]).
Take `N#CN=C1NC(=O)C(=Cc2ccc(Oc3ccccc3)cc2)S1` [Compound 22, 2-(N-Cyanoimino)-5-(4-phenoxybenzylidene)thiazolidin-4-one]: the inhibition in vivo at 30 mg/kg in data set [2] came to 65%. In addition, the “Absorbance Ratio” value in data set [3] worked out at 1.73. In data set [4], the “Reduction Rate (%) Free Fatty Acids” value was determined as 41%, the “Reduction Rate (%) Triglycerides” value is recorded as 65% and the “Reduction Rate (%) β-lipoproteins” value turned out to be 56%. The “Reduction in Blood Glucose (%)” value in data set [5] (setting [8]) is 16%. Further, the “Reduction in Blood Glucose (%)” value in data set [5] (setting [9]) was determined as 34%.
